These results are taken from PubChem BioAssay AID1117345.

pIC50: −log10 of the molar value. The source made the active and inactive calls. No rule for the calls is given here.

This experiment relates to STC-1 cells GLP-1 secretion. Briefly: dose-response assay, glucagon-like peptide-1 release in STC-1 line, potency as half-maximal inhibitory concentration (AID 1117345).
One may read the IC50 as the point on the concentration scale where inhibition reaches its midpoint. With `CCCCCCCCCCCCCC[N+](C)(C)C`, the IC50 is > 40000 nM (inactive).
On the same count and under the same terms, the value for `CCCCCCCCCCCC(=O)[O][Sn]([CH2]CCC)([CH2]CCC)[O]C(=O)CCCCCCCCCCC` was > 40000 nM (inactive).
In general, pIC50 refers to the negative decadic logarithm of the IC50, by convention in mol/L. For the molecule `CC(=O)[O][Hg][c]1ccccc1`, the pIC50 was 6.15.
For the molecule `OCCN1CCN(CC/C=C2/c3ccccc3Sc3ccc(C(F)(F)F)cc32)CC1`, the IC50 is > 40000 nM (inactive).
Regarding `Cc1ccc([N+](=O)[O-])[c]2c1[O][Hg]2`, the pIC50 is 7.01.
